Test results reported in ChEMBL document CHEMBL1649206, “Emerging Klebsiella pneumoniae isolates coproducing KPC-2 and VIM-1 carbapenemases” (2009).
Values after ≈ are worked out from the molar mass of the structure shown. Blank lines part the entries; values can stand above or below the compound they belong to.

Legend:
[1] = tested on: Klebsiella pneumoniae; assay: Antimicrobial activity against Klebsiella pneumoniae isolate T-1504 expressing VIM-1 and KPC-2 genes by microdilution method; format: functional
[2] = tested on: Klebsiella pneumoniae; assay: Antimicrobial activity against Klebsiella pneumoniae isolate A-1760 expressing VIM-1 and KPC-2 genes by microdilution method; format: functional
[3] = tested on: Klebsiella pneumoniae; assay: Antimicrobial activity against Klebsiella pneumoniae isolate H-1406 expressing VIM-1 and KPC-2 genes by microdilution method; format: functional
[4] = tested on: Klebsiella pneumoniae; assay: Antimicrobial activity against Klebsiella pneumoniae isolate T-1780 expressing VIM-1 and KPC-2 genes by microdilution method; format: functional
[5] = tested on: Klebsiella pneumoniae; assay: Antimicrobial activity against Klebsiella pneumoniae isolate A-1797 expressing VIM-1 and KPC-2 genes by microdilution method; format: functional
[6] = target: Metallo-beta-lactamase (Klebsiella pneumoniae) (UniProt Q5GN09); assay: Activity of VIM-1 in Klebsiella pneumoniae isolate A-1797 assessed as compound hydrolysis in presence of EDTA; parameters: scale not given: the % may be the effect or the level left
[7] = target: Metallo-beta-lactamase (Klebsiella pneumoniae) (UniProt Q5GN09); assay: Activity of VIM-1 in Klebsiella pneumoniae isolate T-1780
[8] = target: Carbapenem-hydrolyzing beta-lactamase KPC (Klebsiella pneumoniae) (UniProt Q9F663); assay: Activity of KPC-2 in Klebsiella pneumoniae isolate T-1504 assessed as compound hydrolysis in presence of EDTA; parameters: scale not given: the % may be the effect or the level left
Sequence of Carbapenem-hydrolyzing beta-lactamase KPC (Klebsiella pneumoniae) (Q9F663 whole entry): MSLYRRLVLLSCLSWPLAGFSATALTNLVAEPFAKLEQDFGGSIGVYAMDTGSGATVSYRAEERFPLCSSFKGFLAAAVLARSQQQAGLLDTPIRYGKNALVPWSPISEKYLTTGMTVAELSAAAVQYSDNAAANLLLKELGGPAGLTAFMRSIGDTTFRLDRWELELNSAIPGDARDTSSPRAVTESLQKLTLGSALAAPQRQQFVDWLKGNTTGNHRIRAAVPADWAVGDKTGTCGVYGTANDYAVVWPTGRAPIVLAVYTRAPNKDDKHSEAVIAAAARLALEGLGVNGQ

[9] = target: Carbapenem-hydrolyzing beta-lactamase KPC (Klebsiella pneumoniae) (UniProt Q9F663); assay: Activity of KPC-2 in Klebsiella pneumoniae isolate H-1406
[10] = target: Metallo-beta-lactamase (Klebsiella pneumoniae) (UniProt Q5GN09); assay: Activity of VIM-1 in Klebsiella pneumoniae isolate T-1780 assessed as compound hydrolysis in presence of EDTA; parameters: scale not given: the % may be the effect or the level left
[11] = target: Carbapenem-hydrolyzing beta-lactamase KPC (Klebsiella pneumoniae) (UniProt Q9F663); assay: Activity of KPC-2 in Klebsiella pneumoniae isolate H-1406 assessed as compound hydrolysis in presence of EDTA; parameters: scale not given: the % may be the effect or the level left
[12] = target: Metallo-beta-lactamase (Klebsiella pneumoniae) (UniProt Q5GN09); assay: Activity of VIM-1 in Klebsiella pneumoniae isolate A-1797
[13] = target: Carbapenem-hydrolyzing beta-lactamase KPC (Klebsiella pneumoniae) (UniProt Q9F663); assay: Activity of KPC-2 in Klebsiella pneumoniae isolate T-1504
[14] = target: Metallo-beta-lactamase (Klebsiella pneumoniae) (UniProt Q5GN09); assay: Activity of VIM-1 in Klebsiella pneumoniae isolate A-1760 assessed as compound hydrolysis in presence of EDTA; parameters: scale not given: the % may be the effect or the level left
[15] = target: Metallo-beta-lactamase (Klebsiella pneumoniae) (UniProt Q5GN09); assay: Activity of VIM-1 in Klebsiella pneumoniae isolate H-1406
[16] = target: Metallo-beta-lactamase (Klebsiella pneumoniae) (UniProt Q5GN09); assay: Activity of VIM-1 in Klebsiella pneumoniae isolate H-1406 assessed as compound hydrolysis in presence of EDTA; parameters: scale not given: the % may be the effect or the level left
[17] = target: Metallo-beta-lactamase (Klebsiella pneumoniae) (UniProt Q5GN09); assay: Activity of VIM-1 in Klebsiella pneumoniae isolate A-1760
[18] = target: Carbapenem-hydrolyzing beta-lactamase KPC (Klebsiella pneumoniae) (UniProt Q9F663); assay: Activity of KPC-2 in Klebsiella pneumoniae isolate T-1780 assessed as compound hydrolysis in presence of EDTA; parameters: scale not given: the % may be the effect or the level left
[19] = target: Carbapenem-hydrolyzing beta-lactamase KPC (Klebsiella pneumoniae) (UniProt Q9F663); assay: Activity of KPC-2 in Klebsiella pneumoniae isolate T-1780
[20] = tested on: Klebsiella pneumoniae; assay: Antimicrobial activity against Klebsiella pneumoniae isolate A-1760 expressing VIM-1 and KPC-2 genes by microdilution method in presence of beta-lactamase inhibitor Tazobactam; format: functional
[21] = tested on: Klebsiella pneumoniae; assay: Antimicrobial activity against Klebsiella pneumoniae isolate A-1797 expressing VIM-1 and KPC-2 genes by microdilution method in presence of beta-lactamase inhibitor Tazobactam; format: functional
[22] = tested on: Klebsiella pneumoniae; assay: Antimicrobial activity against Klebsiella pneumoniae isolate H-1406 expressing VIM-1 and KPC-2 genes by microdilution method in presence of beta-lactamase inhibitor Tazobactam; format: functional
[23] = tested on: Klebsiella pneumoniae; assay: Antimicrobial activity against Klebsiella pneumoniae isolate T-1504 expressing VIM-1 and KPC-2 genes by microdilution method in presence of beta-lactamase inhibitor Tazobactam; format: functional
[24] = tested on: Klebsiella pneumoniae; assay: Antimicrobial activity against Klebsiella pneumoniae isolate T-1780 expressing VIM-1 and KPC-2 genes by microdilution method in presence of beta-lactamase inhibitor Tazobactam; format: functional
[25] = tested on: Klebsiella pneumoniae; assay: Antimicrobial activity against Klebsiella pneumoniae isolate T-1780 expressing VIM-1 and KPC-2 genes by microdilution method in presence of beta-lactamase inhibitor clavulanic acid; format: functional
[26] = tested on: Klebsiella pneumoniae; assay: Antimicrobial activity against Klebsiella pneumoniae isolate T-1504 expressing VIM-1 and KPC-2 genes by microdilution method in presence of beta-lactamase inhibitor clavulanic acid; format: functional
[27] = tested on: Klebsiella pneumoniae; assay: Antimicrobial activity against Klebsiella pneumoniae isolate H-1406 expressing VIM-1 and KPC-2 genes by microdilution method in presence of beta-lactamase inhibitor clavulanic acid; format: functional
[28] = tested on: Klebsiella pneumoniae; assay: Antimicrobial activity against Klebsiella pneumoniae isolate A-1797 expressing VIM-1 and KPC-2 genes by microdilution method in presence of beta-lactamase inhibitor clavulanic acid; format: functional
[29] = tested on: Klebsiella pneumoniae; assay: Antimicrobial activity against Klebsiella pneumoniae isolate A-1760 expressing VIM-1 and KPC-2 genes by microdilution method in presence of beta-lactamase inhibitor clavulanic acid; format: functional

Structure (SMILES): C[C@@H](O)[C@H]1C(=O)N2C(C(=O)O)=C(S[C@@H]3CN[C@H](C(=O)Nc4cccc(C(=O)O)c4)C3)[C@H](C)[C@H]12
MIC [1]: 32 µg/mL (≈ 67.3 µM)
MIC [2]: 64 µg/mL (≈ 135 µM)
MIC [3]: 64 µg/mL (≈ 135 µM)
MIC [4]: > 128 µg/mL
MIC [5]: 8 µg/mL (≈ 16.8 µM)

Structure (SMILES): CO/N=C(\C(=O)N[C@@H]1C(=O)N2C(C(=O)[O-])=C(C[N+]3(C)CCCC3)CS[C@H]12)c1csc(N)n1
MIC [1]: 16 µg/mL (≈ 33.3 µM)
MIC [2]: 256 µg/mL (≈ 533 µM)
MIC [3]: 128 µg/mL (≈ 266 µM)
MIC [4]: > 256 µg/mL
MIC [5]: 16 µg/mL (≈ 33.3 µM)

Structure (SMILES): C[C@H]1[C@H](NC(=O)/C(=N\OC(C)(C)C(=O)O)c2csc(N)n2)C(=O)N1S(=O)(=O)O [AZTREONAM]
MIC [1]: 32 µg/mL (≈ 73.5 µM)
MIC [2]: 0.12 µg/mL (≈ 0.276 µM)
MIC [3]: 64 µg/mL (≈ 147 µM)
MIC [4]: 64 µg/mL (≈ 147 µM)
MIC [5]: 64 µg/mL (≈ 147 µM)

Structure (SMILES): CO/N=C(\C(=O)N[C@@H]1C(=O)N2C(C(=O)O)=C(COC(C)=O)CS[C@H]12)c1csc(N)n1 [CEFOTAXIME]
MIC [1]: 8 µg/mL (≈ 17.6 µM)
MIC [2]: > 256 µg/mL
MIC [3]: 256 µg/mL (≈ 562 µM)
MIC [4]: > 256 µg/mL
MIC [5]: > 256 µg/mL

Structure (SMILES): CC(C)(O/N=C(\C(=O)N[C@@H]1C(=O)N2C(C(=O)[O-])=C(C[n+]3ccccc3)CS[C@H]12)c1csc(N)n1)C(=O)O [CEFTAZIDIME]
MIC [1]: 16 µg/mL (≈ 29.3 µM)
MIC [2]: > 256 µg/mL
MIC [3]: > 256 µg/mL
MIC [4]: > 256 µg/mL
MIC [5]: > 256 µg/mL

Structure (SMILES): C[C@@H](O)[C@H]1C(=O)N2C(C(=O)O)=C(SCCNC=N)C[C@H]12 [IMIPENEM ANHYDROUS]
MIC [1]: 2 µg/mL (≈ 6.68 µM)
MIC [2]: 32 µg/mL (≈ 107 µM)
MIC [3]: 32 µg/mL (≈ 107 µM)
MIC [4]: 32 µg/mL (≈ 107 µM)
MIC [5]: 2 µg/mL (≈ 6.68 µM)

Structure (SMILES): C[C@@H](O)[C@H]1C(=O)N2C(C(=O)O)=C(S[C@@H]3CN[C@H](C(=O)N(C)C)C3)[C@H](C)[C@H]12 [MEROPENEM]
Activity [6]: 80%
Activity [7]: 76 U
Activity [8]: < 2%
Activity [9]: 55 U
Activity [10]: 64%
Activity [11]: 57%
Activity [12]: 42 U
Activity [13]: 31 U
Activity [14]: 100%
MIC [2]: 64 µg/mL (≈ 167 µM)
Activity [15]: 55 U
Activity [16]: 57%
Activity [17]: 80 U
Activity [18]: 64%
MIC [3]: 8 µg/mL (≈ 20.9 µM)
MIC [4]: 64 µg/mL (≈ 167 µM)
MIC [5]: 2 µg/mL (≈ 5.22 µM)
Activity [19]: 76 U

Structure (SMILES): CCN1CCN(C(=O)N[C@@H](C(=O)N[C@@H]2C(=O)N3[C@@H]2SC(C)(C)[C@@H]3C(=O)O)c2ccccc2)C(=O)C1=O [PIPERACILLIN]
MIC [20]: > 256 µg/mL
MIC [21]: > 256 µg/mL
MIC [22]: > 256 µg/mL
MIC [1]: 128 µg/mL (≈ 247 µM)
MIC [23]: 64 µg/mL
MIC [24]: > 256 µg/mL
MIC [4]: > 256 µg/mL

MIC [25]: > 256 µg/mL
MIC [26]: 8 µg/mL
MIC [27]: 256 µg/mL
MIC [1]: 256 µg/mL (≈ 666 µM)
MIC [28]: > 256 µg/mL
MIC [3]: > 256 µg/mL
MIC [4]: > 256 µg/mL
MIC [29]: > 256 µg/mL
Structure (SMILES): CC1(C)S[C@@H]2[C@H](NC(=O)[C@H](C(=O)O)c3ccsc3)C(=O)N2[C@H]1C(=O)O [TICARCILLIN]
